Reference: ChEMBL document CHEMBL4732079, “Design, synthesis and antitumor evaluation of new 1,8-naphthalimide derivatives targeting nuclear DNA” (Eur J Med Chem, 2021)
The source made the active and inactive calls. The rule behind the calls is not given here.

Assays:
[1] = target: T1, DNA topoisomerase 1 (Homo sapiens) (UniProt P11387); assay: Inhibition of topoisomerase 1 (unknown origin) assessed as DNA relaxation using pBR322 DNA as substrate at < 20 uM by gel electrophoresis; conditions: dose microM <20
T1 sequence (whole entry): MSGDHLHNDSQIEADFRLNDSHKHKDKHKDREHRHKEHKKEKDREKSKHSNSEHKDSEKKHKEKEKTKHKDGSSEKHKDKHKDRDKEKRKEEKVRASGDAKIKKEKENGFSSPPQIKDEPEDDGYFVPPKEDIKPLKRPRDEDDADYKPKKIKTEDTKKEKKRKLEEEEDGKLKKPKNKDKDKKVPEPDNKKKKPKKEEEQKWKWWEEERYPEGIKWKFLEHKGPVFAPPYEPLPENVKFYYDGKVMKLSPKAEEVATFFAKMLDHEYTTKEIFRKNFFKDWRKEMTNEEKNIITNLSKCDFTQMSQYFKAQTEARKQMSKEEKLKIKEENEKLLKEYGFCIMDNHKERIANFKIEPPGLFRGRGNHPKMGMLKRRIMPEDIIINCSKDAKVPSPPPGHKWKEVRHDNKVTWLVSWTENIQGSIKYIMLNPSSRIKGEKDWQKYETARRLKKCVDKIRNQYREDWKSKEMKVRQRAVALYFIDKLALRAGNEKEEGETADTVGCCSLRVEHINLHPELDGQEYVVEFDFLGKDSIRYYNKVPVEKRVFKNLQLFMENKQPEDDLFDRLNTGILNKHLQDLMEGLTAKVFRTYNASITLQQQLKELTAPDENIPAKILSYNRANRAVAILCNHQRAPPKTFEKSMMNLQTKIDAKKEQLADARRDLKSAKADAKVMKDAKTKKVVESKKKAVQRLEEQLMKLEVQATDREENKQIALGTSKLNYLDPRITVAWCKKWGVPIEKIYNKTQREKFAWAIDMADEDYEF

[2] = test system: MGC-803; assay: Induction of apoptosis in human MGC-803 cells assessed as necrotic cells at 2 uM after 24 hrs (reference value: 0.9%); assay type: functional
[3] = test system: MGC-803; assay: Induction of apoptosis in human MGC-803 cells assessed as early apoptotic cells at 0.5 uM after 24 hrs (reference value: 2.9%); assay type: functional
[4] = test system: MGC-803; assay: Induction of cell cycle arrest in human MGC-803 cells assessed as accumulation of cells at G2 phase at 1 uM for 24 hrs (reference value: 17.61%); assay type: functional
[5] = target: T1, DNA topoisomerase 1 (Homo sapiens); assay: Inhibition of topoisomerase 1 (unknown origin) using pBR322 DNA as substrate at 10 uM by gel electrophoresis
[6] = test system: MGC-803; assay: Induction of apoptosis in human MGC-803 cells assessed as decrease in Bcl2 expression at 0.5 to 1 uM by Western blot analysis; assay type: functional, cell-based; conditions: dose 0.5-1 µM
[7] = target: T1, DNA topoisomerase 1 (Homo sapiens); assay: Inhibition of topoisomerase 1 (unknown origin) using pBR322 DNA as substrate at 20 uM by gel electrophoresis

inhibition [1]	inhibition [5]	inhibition [7]	SMILES	Activity [2]	Activity [3]	Activity [4]	Activity [6]
Active	Active	–	CN(C)CCN1C(=O)c2cccc3c(N4CCN(C(=O)c5ccccc5)CC4)c([N+](=O)[O-])cc(c23)C1=O	5.6%	10.1%	0.92%	Active
Active	–	Active	Cc1ccc(S(=O)(=O)N2CCN(c3c([N+](=O)[O-])cc4c5c(cccc35)C(=O)N(CCN(C)C)C4=O)CC2)cc1	6.2%	9.7%	0%	Active
